Experiments:
[1] = system: Pseudomonas aeruginosa (L); assay: MBC (minimum bactericidal concentration) test in Wash NEXT reagent; format: cell-based
Procedure: (§1) The stock organisms were thawed and subbed prior to beginning the MBC test. Molds were subbed to SDA plates one week before, and the bacteria were subbed to TAT agar plates 24 hours prior to the start of the test. All plates were incubated at 32 degrees C.
(§2) Each bacterial organism was inoculated into 40 ml sterile saline in a centrifuge tube to create a density of MacFarland #1. Two serial dilutions of 1:100 were then made, resulting in 10^−2 and 10^−4 concentrations. Each dilution was vortexed before it was sampled, and sterile Eppendorf pipette tips were used to make each transfer. The 10^−4 dilution was spiral plated to yield the initial inoculum concentration.
(§3) MBC trays were set up with the prepared test reagent. Using a Matrix pipettor, 100 μl aliquots of reagent were distributed into the wells, diluting the amount of preservative from 100% to 10% increments, using unpreserved reagent as the diluent. In one row, 100% non-preserved reagent acted as a positive control and served as a benchmark for a full mat of growth. In well #12H, 100 μl unpreserved reagent was pipetted, and this well was not inoculated with organisms, as it served as the negative control. Once all of the trays were prepared, the prepared bacteria/mold suspensions were poured into the MBC inoculating trays. These were placed onto the reagent trays, and 0.01 ml inoculum was introduced into the 100 μl of reagent in each well.
(§4) This was done by dipping a sterile cotton swab into each well, and absorbing all of the liquid in the well. The swab was rolled onto a TAT agar plate ensuring that the entire swab touches the agar. Plates ware incubated at 32 degrees C. for 48 hours to 7 days, depending on the organism. Observations for growth were performed by a scoring matrix using + for a full mat, +/− for some growth, a numerical value for an actual colony count, and—for no growth.
(§5) Below are tables that contain the data obtained in Example 1. The MBC test is scored by (+) indicating a full grown mat of organisms, equivalent to the organisms in the unpreserved reagent. (+/−) indicates there is some kill evident disturbing that mat or bringing the quantities down to an almost countable level. An actual number is the actual number of colonies growing at that concentration of preservative. (−) indicates no growth found. The MBC trays were stored at room temperature for the entire test.
(§6) The materials and methods and analysis of the MBC test were the same as in Example 1.

[2] = system: Penicillium notatum-KMO (R); assay: as above; format: cell-based; parameters: key to MBC test growth score: number = actual colony count; + full mat, − no growth
Procedure: as §1
as §2, with “For the molds, each” for “Each bacterial”, “#5.” for “#1.”
as §3, §4, §5, §6

Cc1cc(NS(=O)(=O)c2ccc(N)cc2)no1 [Sulfamethoxazole, sulfamethoxazole]
MBC test growth score ([1]; 10% preservative, 8 hour): +
MBC test growth score ([1]; 10% preservative, 24 hour): +
MBC test growth score ([1]; 10% preservative, 48 hour): +
MBC test growth score ([1]; 10% preservative, 72 hour): +
MBC test growth score ([1]; 20% preservative, 8 hour): +
MBC test growth score ([1]; 20% preservative, 24 hour): +
MBC test growth score ([1]; 20% preservative, 48 hour): +
MBC test growth score ([1]; 20% preservative, 72 hour): +
MBC test growth score ([1]; 30% preservative, 8 hour): +
MBC test growth score ([1]; 30% preservative, 24 hour): +
MBC test growth score ([1]; 30% preservative, 48 hour): +
MBC test growth score ([1]; 30% preservative, 72 hour): +
MBC test growth score ([1]; 40% preservative, 8 hour): +
MBC test growth score ([1]; 40% preservative, 24 hour): +
MBC test growth score ([1]; 40% preservative, 48 hour): +
MBC test growth score ([1]; 40% preservative, 72 hour): +
MBC test growth score ([1]; 50% preservative, 8 hour): +
MBC test growth score ([1]; 50% preservative, 24 hour): +
MBC test growth score ([1]; 50% preservative, 48 hour): +
MBC test growth score ([1]; 50% preservative, 72 hour): +
MBC test growth score ([1]; 60% preservative, 8 hour): +
MBC test growth score ([1]; 60% preservative, 24 hour): +
MBC test growth score ([1]; 60% preservative, 48 hour): +
MBC test growth score ([1]; 60% preservative, 72 hour): +
MBC test growth score ([1]; 70% preservative, 8 hour): +
MBC test growth score ([1]; 70% preservative, 24 hour): +
MBC test growth score ([1]; 70% preservative, 48 hour): +
MBC test growth score ([1]; 70% preservative, 72 hour): +
MBC test growth score ([1]; 80% preservative, 8 hour): +
MBC test growth score ([1]; 80% preservative, 24 hour): +
MBC test growth score ([1]; 80% preservative, 48 hour): +
MBC test growth score ([1]; 80% preservative, 72 hour): +
MBC test growth score ([1]; 90% preservative, 8 hour): +
MBC test growth score ([1]; 90% preservative, 24 hour): +
MBC test growth score ([1]; 90% preservative, 48 hour): +
MBC test growth score ([1]; 90% preservative, 72 hour): +
MBC test growth score ([1]; 100% preservative, 8 hour): +
MBC test growth score ([1]; 100% preservative, 24 hour): +
MBC test growth score ([1]; 100% preservative, 48 hour): +
MBC test growth score ([1]; 100% preservative, 72 hour): +
MBC test growth score ([2]; 10% preservative, 8 hour): +
MBC test growth score ([2]; 10% preservative, 24 hour): +
MBC test growth score ([2]; 10% preservative, 48 hour): +/−
MBC test growth score ([2]; 10% preservative, 72 hour): +
MBC test growth score ([2]; 10% preservative, 7 day): +
MBC test growth score ([2]; 10% preservative, 14 day): +/−
MBC test growth score ([2]; 20% preservative, 8 hour): +
MBC test growth score ([2]; 20% preservative, 24 hour): +
MBC test growth score ([2]; 20% preservative, 48 hour): +/−
MBC test growth score ([2]; 20% preservative, 72 hour): +/−
MBC test growth score ([2]; 20% preservative, 7 day): +/−
MBC test growth score ([2]; 20% preservative, 14 day): 31
MBC test growth score ([2]; 30% preservative, 8 hour): +
MBC test growth score ([2]; 30% preservative, 24 hour): +
MBC test growth score ([2]; 30% preservative, 48 hour): +/−
MBC test growth score ([2]; 30% preservative, 72 hour): +/−
MBC test growth score ([2]; 30% preservative, 7 day): +/−
MBC test growth score ([2]; 30% preservative, 14 day): 28
MBC test growth score ([2]; 40% preservative, 8 hour): +
MBC test growth score ([2]; 40% preservative, 24 hour): +
MBC test growth score ([2]; 40% preservative, 48 hour): +/−
MBC test growth score ([2]; 40% preservative, 72 hour): +/−
MBC test growth score ([2]; 40% preservative, 7 day): +/−
MBC test growth score ([2]; 40% preservative, 14 day): 25
MBC test growth score ([2]; 50% preservative, 8 hour): +
MBC test growth score ([2]; 50% preservative, 24 hour): +
MBC test growth score ([2]; 50% preservative, 48 hour): +/−
MBC test growth score ([2]; 50% preservative, 72 hour): +/−
MBC test growth score ([2]; 50% preservative, 7 day): +/−
MBC test growth score ([2]; 50% preservative, 14 day): 18
MBC test growth score ([2]; 60% preservative, 8 hour): +
MBC test growth score ([2]; 60% preservative, 24 hour): +
MBC test growth score ([2]; 60% preservative, 48 hour): +/−
MBC test growth score ([2]; 60% preservative, 72 hour): +/−
MBC test growth score ([2]; 60% preservative, 7 day): +/−
MBC test growth score ([2]; 70% preservative, 8 hour): +
MBC test growth score ([2]; 70% preservative, 24 hour): +
MBC test growth score ([2]; 70% preservative, 48 hour): +/−
MBC test growth score ([2]; 70% preservative, 72 hour): 18
MBC test growth score ([2]; 70% preservative, 7 day): 9
MBC test growth score ([2]; 70% preservative, 14 day): 10
MBC test growth score ([2]; 80% preservative, 8 hour): +
MBC test growth score ([2]; 80% preservative, 24 hour): +
MBC test growth score ([2]; 80% preservative, 48 hour): +/−
MBC test growth score ([2]; 80% preservative, 7 day): 8
MBC test growth score ([2]; 80% preservative, 14 day): 6
MBC test growth score ([2]; 90% preservative, 8 hour): +
MBC test growth score ([2]; 90% preservative, 24 hour): +
MBC test growth score ([2]; 90% preservative, 48 hour): +/−
MBC test growth score ([2]; 90% preservative, 72 hour): 10
MBC test growth score ([2]; 90% preservative, 7 day): 7
MBC test growth score ([2]; 90% preservative, 14 day): 3
MBC test growth score ([2]; 100% preservative, 8 hour): +
MBC test growth score ([2]; 100% preservative, 24 hour): +
MBC test growth score ([2]; 100% preservative, 48 hour): +/−
MBC test growth score ([2]; 100% preservative, 72 hour): 7
MBC test growth score ([2]; 100% preservative, 7 day): 4
MBC test growth score ([2]; 100% preservative, 14 day): 2

Source: patent US20140094424A1, “MICROBICIDAL COMPOSITIONS AND METHODS OF PRODUCTION USE THEREOF” (priority 2011, published 2014)
